Measurements taken from patent publication US20110160249A1, “5-LIPOXYGENASE-ACTIVATING PROTEIN INHIBITOR” (priority 2008, published 2011).
In brackets after ≈: the same amount, converted by molar mass. One block for each compound: values may come before it.

Columns and labels:
chronic asthma = conditions: clinical studies; cited from earlier work
[1] = system: allergen-induced early and late phases of lung-volume decline; conditions: clinical trials; cited from earlier work
[2] = system: whole blood ionophore-stimulated leukotriene LTB4; test: Phase I study, whole blood ionophore-stimulated LTB4; type: in vivo, human
Description: Study Design: Single center, double-blind, randomized, placebo-controlled, single ascending dose followed by multiple ascending dose study.
Sample Size: (1) Single Dose Phase: eight (8) subjects (6 active, 2 placebo) per dose level; up to 5 dose levels are planned (a total of 40 subjects if all 5 dose levels are completed); and (2) Multiple Dose Phase: eight (8) subjects (6 active, 2 placebo) per dose level; up to 4 dose levels are planned (a total of 32 subjects if all 4 dose levels are completed).
Formulations: Compound 2 was supplied as an oral powder for reconstitution. Placebo solution matched. […] The placebo differed only in the absence of the active.
The following dosing cohorts were used:
Routes of Administration: All doses were administered orally with approximately 100 mL of water rinse. Subjects were fasted for at least 8 hours prior to dosing and for 2 hours after dosing. For BID dosing in the Multiple Dose Phase, when applicable, subjects were fasted for at least 2 hours prior to the second daily dose.
Plasma concentrations of Compound 1 were determined using a validated LC/MS method. Whole blood ionophore-stimulated leukotriene LTB4 and urinary LTE4 production were assayed by ELISA and mass spectrometry, respectively.
Analysis of Samples: Concentrations of Compound 1 was determined in plasma samples collected from subjects. Similarly, concentrations of LTB4 in plasma and urinary LTE4 were determined in blood and urine samples collected.

[3] = Liquid formulations (oral solutions/suspensions); type: physicochemical; conditions: certain solvent systems, below pH values of about 9-10
Experimental: Values of pH reported were estimated based on pH indicating strips. […] Accordingly, provided in certain embodiments herein were formulations having a pH above about 9, above about 10 or of about 10. In certain embodiments, the formulation was buffered at a pH of about 10. All formulations prepared were sonicated for about 10 minutes.

[4] = Thermodynamic Aqueous Solubility by HPLC; type: physicochemical; conditions: water, 25° C.
Experimental: Aqueous solubility was determined by suspending sufficient compound in water to give a maximum final concentration of ≧10 mg·ml^−1 of the parent free-form of the compound. The suspension was equilibrated at 25° C. for 24 hours then the pH was measured. The suspension was then filtered through a glass fibre C filter into a 96 well plate. The filtrate was then diluted by a factor of 101. Quantitation was by HPLC with reference to a standard solution of approximately 0.1 mg·ml^−1 in DMSO. Different volumes of the standard, diluted and undiluted sample solutions were injected. The solubility was calculated using the peak areas determined by integration of the peak found at the same retention time as the principal peak in the standard injection.
Analysis was performed on an Agilent HP1100 series system equipped with a diode array detector and using ChemStation software vB.02.01-SR1.

[5] = Gravimetric Vapour Sorption (GVS); type: physicochemical; conditions: after the full sorption/desorption cycle
[6] = rat, in vivo, po

SMILES: CC(c1cc2ccccc2s1)N(O)C(N)=O (centres unmarked) [Zileuton, zileuton]
efficacy in chronic asthma (chronic asthma): exhibits clinical efficacy
efficacy in allergen-challenge studies (allergen-induced early and late phases of lung-volume decline) [1]: not effective

EC50 ([2]; Homo sapiens, dose range studied, read-out: EC50, plasma concentration vs inhibition of ionophore-stimulated LTB4 production): ~0.07 µg/mL (≈ 0.11 µM)
EC90 ([2]; Homo sapiens, dose range studied, read-out: EC90, plasma concentration vs inhibition of ionophore-stimulated LTB4 production): ~0.32 µg/mL (≈ 0.502 µM)
solubility in words [3]: sparingly soluble
SMILES: CCOc1ccc(-c2ccc(Cn3c(CC(C)(C)C(=O)O)c(SC(C)(C)C)c4cc(OCc5ccc(C)cn5)ccc43)cc2)cn1 [Compound 1, 3-[3-(tert-butylsulfanyl)-1-[4-(6-ethoxy-pyridin-3-yl)benzyl]-5-(5-methyl-pyridin-2-yl-methoxy)-1H-indol-2-yl]-2,2-dimethylpropanoic acid]
plasma concentration at which complete inhibition of ionophore-stimulated LTB4 production was reached ([2]; in vivo): 1000 to 1500 ng/mL

Appearance of mixture after equilibration for 24 hours [4]: Suspension
Concentration of filtrate (as mg/mL of free base) ([4]; 24 hours, listed as Compound 2 Phase A): >10 mg/mL
XRPD pattern after the GVS experiment [5]: No changes were observed
plasma exposures [6]: equivalent plasma exposures
SMILES: CCOc1ccc(-c2ccc(Cn3c(CC(C)(C)C(=O)[O-])c(SC(C)(C)C)c4cc(OCc5ccc(C)cn5)ccc43)cc2)cn1.[Na+] [Amorphous Phase A]

SMILES: O=C(O)[C@@H](c1ccc(OCc2ccc3ccccc3n2)cc1)C1CCCC1 [BAYX-1005]
efficacy in allergen-challenge studies (allergen-induced early and late phases of lung-volume decline) [1]: show efficacy

SMILES: CC(C)(C)Sc1c(CC(C)(C)C(=O)O)n(Cc2ccc(Cl)cc2)c2ccc(OCc3ccc4ccccc4n3)cc12 [MK-0591]
efficacy in chronic asthma (chronic asthma): shows efficacy
efficacy in allergen-challenge studies (allergen-induced early and late phases of lung-volume decline) [1]: show efficacy

SMILES: CC(C)c1ccc2c(c1)c(SC(C)(C)C)c(CC(C)(C)C(=O)O)n2Cc1ccc(Cl)cc1 [MK-866]
efficacy in allergen-challenge studies (allergen-induced early and late phases of lung-volume decline) [1]: show efficacy
